Data as given in publication PMC9977050, “Thymoquinone effect on the Dictyostelium discoideum model correlates with functional roles for glutathione S-transferases in eukaryotic proliferation, chemotaxis, and development” (PLOS ONE, 2023).

How the values were obtained:
Assay in all cases: CDNB conjugation assay, absorbance at […] nm
Format in all cases: biochemical
rDdGSTA3 = biological target: T1, rDdGSTA3 (Dictyostelium discoideum, UniProt Q54VI4); settings: with GSH, 25°C
T1 construct: gene gsta3; purified recombinant
T1 sequence (Q54VI4 2-204): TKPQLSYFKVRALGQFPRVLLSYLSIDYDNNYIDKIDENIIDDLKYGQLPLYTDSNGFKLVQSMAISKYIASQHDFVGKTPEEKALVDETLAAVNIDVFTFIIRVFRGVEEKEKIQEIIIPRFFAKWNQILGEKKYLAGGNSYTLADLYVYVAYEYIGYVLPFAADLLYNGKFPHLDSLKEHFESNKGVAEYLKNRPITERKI

rDdGSTA2 [1] = biological target: T2, rDdGSTA2 (Dictyostelium discoideum, UniProt Q556G3); settings: with GSH, 25°C
T2 construct: gene gsta2-1; purified recombinant
T2 sequence (Q556G3 2-198): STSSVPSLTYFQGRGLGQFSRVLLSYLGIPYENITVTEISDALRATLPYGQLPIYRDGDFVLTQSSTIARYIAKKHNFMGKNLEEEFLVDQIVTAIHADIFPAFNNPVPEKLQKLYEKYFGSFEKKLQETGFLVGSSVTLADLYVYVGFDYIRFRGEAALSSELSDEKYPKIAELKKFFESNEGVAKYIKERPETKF

rDdGSTA2 [2] = biological target: T2, rDdGSTA2; settings: GSH and CDNB as substrates, 25°C; mode not determined; authors caution that thymoquinone may also bind GSH, CDNB or product

| SMILES | CDNB conjugation assay, absorbance at 340 nm (rDdGSTA3) | CDNB conjugation assay, absorbance at 340 nm (rDdGSTA2 [1]) | % reduction of GS-DNB conjugate at 0.75 μM (rDdGSTA2 [2]) |
| --- | --- | --- | --- |
| O=[N+]([O-])c1ccc(Cl)c([N+](=O)[O-])c1 [CDNB, 1-chloro-2,4-dinitrobenzene] | CDNB activity assays of purified, recombinant GSTs (rDdGSTA2, rDdGSTA3) were conducted | CDNB activity assays of purified, recombinant GSTs (rDdGSTA2, rDdGSTA3) were conducted | – |
| CC1=CC(=O)C(C(C)C)=CC1=O [thymoquinone, 2-isopropyl-5-methylbenzo-1,4-quinone] | – | – | 61% |
